The values that follow come from patent US20240325554A1, “METHODS FOR TREATING CANCER” (Bicycle Tx Limited, priority 2021, published 2024).

“Also recorded” adds a separate entry of the source. Numbered stars: 1 amine (or outer) side, 2 acyl side, 3 side chain; on linkers, the order of the positions; unused ones are H or OH. Bridge positions count the residues as written; N and C are the ends. Square brackets hold non-standard residues; d marks the D form. I, II: the chains in the order shown. X2 = O=C(CCOCCOCCOCCN(CCOCCOCCOCCn1cc(CCC(=O)[*:2])nn1)CCOCCOCCOCCn1cc(CCC(=O)[*:3])nn1)[*:1]; TATA = O=C(CC[*:1])N1CN(C(=O)CC[*:2])CN(C(=O)CC[*:3])C1; X1 = CC(C)[C@H](N[*:1])C(=O)C[C@@H](CC(N)=O)C(=O)[*:2]; X3 = O=C(CC[*:1])N1CN(C(=O)CC[*:3])CN(C(=O)C[*:2])C1; d1Nal = N[C@H](Cc1cccc2ccccc12)C(=O)O; Hyp = O=C(O)[C@@H]1C[C@@H](O)CN1; hArg = N=C(N)NCCCC[C@H](N)C(=O)O; tBuAla = CC(C)(C)C[C@H](N)C(=O)O; Nle = CCCC[C@H](N)C(=O)O

Data set [1] relates to MC38 #13 cells (MC38 cells engineered to overexpress Nectin-4). The data set is described as follows: efficacy study BT7480 with anti-PD-1 and anti-Ctla-4, MC38 #13 tumor growth and survival. The data set is classed as in vivo, C57BL/6J-huCD137 mice. Particulars: i.p. BIW for 2 weeks, 1 mg/kg BT7480, 5 mg/kg antibodies, by day 33. How it is done: For tumor growth analysis, 6-8 week old female C57BL/6J-huCD137− mice (Biocytogen) were implanted subcutaneously with 1×10+e6 MC38 #13 cells (MC38 cells engineered to overexpress Nectin-4). Mice were randomized into treatment groups when average tumor volumes reached around 100 mm^3 and were treated intraperitoneally with vehicle (25 mM histidine, 10% sucrose, pH7), 1 mg/kg BT7480, 5 mg/kg anti-PD-1 (RMP 1-14), 5 mg/kg anti-Ctla-4 (9H10) or BT7480/anti-PD-1 and BT7480/anti-Ctla-4 combinations. Treatments were given twice weekly (BIW) for 2 weeks, and tumor growth was monitored by caliper measurements until day 33 after treatment initiation. Animals with >2000 mm^3 tumors were sacrificed as they had reached the Humane Endpoint.

For data set [2], the target named is T1, CD137 (Homo sapiens, UniProt Q07011). The data set is described as follows: CD137 activation. The data set is classed as cell-based.
In data set [3] the test system is MC38 #13 (MC38 cells engineered to express Nectin-4) tumor tissue. Kind of data set: transcriptional (Nanostring) analysis of MC38 #13 tumors, study with BT7480. Type of data set: in vivo, huCD137-C57B/6J mice. Particulars: 5 mg/kg i.v. 0 h, 24 h. The protocol:
For the transcriptional and immunohistochemical (IHC) analyses, 6-8 week old female huCD137-C57B/6J mice (Biocytogen) mice were implanted subcutaneously with 1×10^6 MC38 #13 (MC38 cells engineered to express Nectin-4) cells. Mice were randomized into treatment groups when average tumor volumes reached around 255 mm^3 to receive vehicle, BT7480 (BCY00011863), non-binder BCY control BCY00012797 (BCY12797) or αCD137 antibody (urelumab analogue). BT7480 and its non-binding control were dosed intravenously at 5 mg/kg (in 25 mM histidine HCl, 10% sucrose, pH7; Vehicle) at 0 h and 24 h and urelumab analogue was dosed intraperitoneally at 2 mg/kg in PBS BIW (0 h, 72 h) dose and schedule. Tumors from BT7480-treated mice were harvested at 24 h (after the 0 h dose), 48 h (24 h after the last of 0 h and 24 h dose), 96 h (72 h after the last of 0 h and 24 h dose) and 144 h (120 h after the last of 0 h and 24 h dose). Tumors from αCD137-treated mice were harvested at 144 h after treatment initiation. Tumors from vehicle treated mice were harvested 24 h after the 0 h dose and at 144 h (120 h after the last of 0 h and 24 h dose). RNA was isolated from tumor tissues using RNAeasy kit (Qiagen) and transcriptional analysis was performed using nCounter Mouse PanCancer IO 360 panel (Nanostring) from 100 ng RNA/tumor. Data were analyzed using the nSolver Analysis Software with advanced analysis probe set ns_mm_io_360_v1.0 (Nanostring).

The target of data set [4] is T1, CD137. Kind of data set: IL-2 and IFN-γ cytokine secretion. Type of data set: cell-based.
Data set [5] deals with MC38 tumor. Kind of data set: MC38 tumor model in mice (BCY13272). The data set is classed as in vivo.
Data set [6] concerns MC38 tumor tissue. The data set is described as follows: transcriptional (Nanostring) profiling of MC38 tumors, study with BT7455. Type of data set: in vivo, huCD137-C57B/6J mice. The protocol: For the transcriptional profiling analyses of the effects of BT7455 in the immune tumor microenvironment, 6-8 week old female huCD137-C57B/6J mice (Biocytogen) mice were implanted subcutaneously with 1×10+E6 MC38 cells. Mice were randomized into treatment groups when average tumor volumes reached around 350 mm^3 to receive vehicle, BT7455, αCD137 antibody (urelumab analogue) or αPD-1 antibody. BT7455 was dosed intravenously at 8 mg/kg (in 25 mM histidine HCl, 10% sucrose, pH7; Vehicle) at 0 h and 24 h and urelumab analogue and αPD-1 antibody were dosed intraperitoneally at 2 mg/kg (urelumab analogue) or 10 mg/kg (αPD-1 antibody) in PBS at 0 h. Tumors from vehicle, BT7455, urelumab analogue and αPD-1 antibody-treated mice were harvested at 24 h, 48 h and 144 h after treatment initiation. RNA was isolated from tumor tissues using RNAeasy kit (Qiagen) and transcriptional analysis was performed using nCounter Mouse PanCancer IO 360 panel (Nanostring) from 100 ng RNA/tumor. Data were analyzed using the nSolver Analysis Software with advanced analysis probe set ns_mm_io_360 v1.0 (Nanostring).

Data set [7] has as its system MC38 tumor. The data set is described as follows: efficacy study BCY12491 and Pembrolizumab combination, MC38 tumor growth. Type of data set: in vivo, huCD137/huPD-1-C57B/6J mice. How it is done: For tumor growth analysis, 6-8 week old female huCD137/huPD-1-C57B/6J mice (Biocytogen) mice were implanted subcutaneously with 1×10^6 MC38 cells. Mice were randomized into treatment groups when average tumor volumes reached around 92 mm^3 and were treated intravenously with vehicle (25 mM histidine, 10% sucrose, pH7), 5 mg/kg BCY12491 (0, 24 h) or intraperitoneally with 3 mg/kg anti-PD-1 antibody Pembrolizumab or a combination of BCY12491 and Pembrolizumab. Combination treatments were given with three different dosing schedules: BCY12491 and Pembrolizumab treatment initiating at the same time on day 0, BCY12491 treatment initiating on […] and Pembrolizumab treatment initiating on day 5, or Pembrolizumab treatment initiating of day 0 and BCY12491 treatment initiating on day 5. Treatments were given weekly for four doses and tumor growth was monitored by caliper measurements.

The subject of data set [8] is MC38 tumor tissue. Kind of data set: transcriptional (Nanostring) analysis of MC38 tumors, profiling study with BCY12491. The following applies: Q3D for three doses, Day 6, vs vehicle, 15 mg/kg i.v. peptides, 2 mg/kg i.p. antibody. The data set is classed as in vivo, huCD137-C57B/6J mice. The protocol: (§1) For the transcriptional and immunohistochemical (IHC) analyses, 6-8 week old female huCD137-C57B/6J mice (Biocytogen) mice were implanted subcutaneously with 1×10^6 MC38 cells. Mice were randomized into treatment groups when average tumor volumes reached around 240 mm^3 and were treated intravenously with vehicle (25 mM histidine, 10% sucrose, pH7), 15 mg/kg BCY12491, 15 mg/kg BCY13626 (non-binding control) or intraperitoneally with 2 mg/kg anti-CD137 antibody urelumab. Treatments were given Q3D for three doses, tumor growth was monitored by caliper measurements and tumor tissues were harvested 1 hour after the last dose on Day 6. Part of the tumor tissue was used for RNA isolation for transcriptional analysis and a part of the tumor tissue was used for formalin-fixed paraffin embedded (FFPE) sample preparation for IHC analysis. RNA was isolated from tumor tissues using RNAeasy kit (Qiagen) and transcriptional analysis was performed using nCounter Mouse PanCancer IO 360 panel (Nanostring) from 100 ng RNA/tumor. Data were analyzed using the nSolver Analysis Software with advanced analysis probe set ns_mm_io_360_v1.0 (Nanostring). CD8+ tumor infiltrating cells were stained in FFPE tissue sections using anti-mouse CD8 antibody (Abcam, #ab217344) and Ventana Discovery OmniMap anti Rabbit-HRP Kit (Ventana #760 4310).

In data set [9] the test system is MC38 tumor tissue. The data set is described as follows: IHC analysis for CD8+ cells in MC38 tumor tissue, study with BCY12491. Type of data set: in vivo, huCD137-C57B/6J mice. Particulars: Q3D for three doses, Day 6, vs vehicle or non-binder. The protocol:
as §1

T1 sequence (Q07011 24-255): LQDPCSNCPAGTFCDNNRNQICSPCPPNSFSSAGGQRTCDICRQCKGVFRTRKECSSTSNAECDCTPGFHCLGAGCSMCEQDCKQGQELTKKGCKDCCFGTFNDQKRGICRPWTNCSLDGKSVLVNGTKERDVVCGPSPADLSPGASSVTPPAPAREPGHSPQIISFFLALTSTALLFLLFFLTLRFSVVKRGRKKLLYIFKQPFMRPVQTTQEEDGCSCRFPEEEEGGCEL

For `CCCC[C@@H]1NC(=O)[C@H](Cc2ccc(O)cc2)NC(=O)[C@@H]2CCCN2C(=O)[C@H](CC(=O)O)NC(=O)[C@H](C)NC(=O)[C@H](Cc2ccccc2)NC(=O)[C@@H]2CSCCC(=O)N3CN(CN(C3)C(=O)CCSC[C@@H](C(=O)N[C@@H](C)C(N)=O)NC1=O)C(=O)CCSC[C@H](NC(C)=O)C(=O)N[C@@H](CC(C)(C)C)C(=O)N1CCC[C@H]1C(=O)N[C@@H](CCC(=O)O)C(=O)N[C@H](CCCCNC(=O)CCc1cn(CCOCCOCCOCCN(CCOCCOCCOCCC(=O)N[C@H]3CSCCC(=O)N4CN5CN(C4)C(=O)CCSC[C@H](NC(=O)[C@@H](CC(=O)O)NC(=O)[C@H](Cc4cccc6ccccc46)NC(=O)[C@@H]4CCCN4C3=O)C(=O)N[C@@H](CCSC)C(=O)N[C@@H](CCCCNC(=N)N)C(=O)N[C@@H](CC(=O)O)C(=O)N[C@@H](Cc3c[nH]c4ccccc34)C(=O)N[C@@H](CO)C(=O)N[C@@H]([C@@H](C)O)C(=O)N3CCC[C@H]3C(=O)N3C[C@H](O)C[C@H]3C(=O)N[C@@H](Cc3c[nH]c4ccccc34)C(=O)N[C@H](C(N)=O)CSCCC5=O)CCOCCOCCOCCn3cc(CCC(=O)NCCCC[C@H]4NC(=O)[C@H](CCC(=O)O)NC(=O)[C@@H]5CCCN5C(=O)[C@H](CC(C)(C)C)NC(=O)[C@@H](NC(C)=O)CSCCC(=O)N5CN6CN(C5)C(=O)CCSC[C@H](NC(=O)[C@H](Cc5ccc(O)cc5)NC(=O)[C@@H]5CCCN5C4=O)C(=O)N[C@@H](Cc4ccccc4)C(=O)N[C@@H](C)C(=O)N[C@@H](CC(=O)O)C(=O)N4CCC[C@H]4C(=O)N[C@@H](Cc4ccc(O)cc4)C(=O)N[C@@H](CCCC)C(=O)N[C@H](C(=O)N[C@@H](C)C(N)=O)CSCCC6=O)nn3)nn1)C(=O)N1CCC[C@H]1C(=O)N[C@@H](Cc1ccc(O)cc1)C(=O)N2` [BT7480], the “rate of complete responses (CRs)” value in data set [1] was 0/8. Further, on CD137 [2], the CD137 activation result is on record as “strong CD137 activation”. For the same compound, the “mRNA for T cell chemotactic chemokines/cytokines such as Ccl1, Ccl17 and Ccl24” value in [3] was “significant early (24 hour timepoint) increase”. For the same compound, in data set [3] (5 mg/kg), the “mRNAs for immune checkpoints (Ctla4, Pdcd1, Cd274, Lag3, Havcr2, Pdcd1lg2, Tigit)” value is listed as “increase in several immune checkpoint mRNAs; also recorded: trend to increase or significant increase”. Besides, the “cytotoxic cell score in tumor tissue” value in data set [3] (144 h vs vehicle at 144 h) was “significantly increased”. Also, the “Macrophage Cell Score in tumor tissue” value in data set [3] (by 48 h vs 24 h vehicle readout) is “significant increase”. Besides, the “IL-2 and IFN-γ cytokine secretion” value on CD137 [4] is “robust IL-2 and IFN-γ cytokine secretion”.

In the case of “I: A[hArg]DC[Hyp]L[X1]PLCLEP[d1Nal]WTC-NH2 / II: Ac-C[tBuAla]PE[dK]PYCFADPY[Nle]CA-NH2 / III: Ac-C[tBuAla]PE[dK]PYCFADPY[Nle]CA-NH2 (linker I:4-I:10-I:17, II:1-II:8-II:15 via TATA; linker I:N-II:5-III:5 via X2; linker III:1-III:8-III:15 via X3) [BT7455]”, the antitumor effect entry in the data set with MC38 tumor [5] was “significant antitumor effect”. For the same compound, the “mRNAs for immune checkpoints (Ctla4, Pdcd1, Cd274, Lag3, Havcr2, Pdcd1lg2, Tigit)” value with MC38 tumor tissue [6] (8 mg/kg i.v. 0 h, 24 h) is listed as “increase in several immune checkpoint mRNAs; also recorded: significant increase”. In addition, the “mRNA for T cell chemotactic chemokines/cytokines such as Ccl1, Ccl17 and Ccl24” value in the data set with MC38 tumor tissue [6] (8 mg/kg i.v., 24-48 hour timepoint) is reported as “significant early (24-48 hour timepoint) increase”. For the same compound, the “cytotoxic cell score in tumor tissue” value with MC38 tumor tissue [6] (8 mg/kg i.v., vs vehicle or anti-PD-1 or anti-CD137 treated mice) was “significant increase”. Also, in the data set on MC38 tumor tissue [6] (48 h after treatment initiation, 8 mg/kg BT7455, 10 mg/kg anti-PD-1, 2 mg/kg urelumab analogue), the “modulation of gene sets (signature scores)” value is on record as “significant early (48 hours) modulation of several gene sets”.

Turning to “Pembrolizumab: anti-PD-1 antibody Pembrolizumab”, the “anti-tumor activity compared to vehicle control” value in the data set on MC38 tumor [7] (5 mg/kg BCY12491 QW (0, 24 h), 3 mg/kg Pembrolizumab QW, combination both from day 0, D18, p<0.0001) was “significantly affected the tumor growth; also recorded: significant anti-tumor activity”. The complete responses with MC38 tumor [7] (monotherapy treatment cohorts, 5 mg/kg BCY12491 (0, 24 h) or 3 mg/kg Pembrolizumab weekly) is 3/10.

On to “anti-CD137 antibody: anti-CD137 antibody urelumab”, for which, in the data set on MC38 tumor tissue [8], the “T cell score in tumor tissue” value is given as “increased significantly” and the “cytotoxic cell score in tumor tissue” value is “increased significantly”. In the data set with MC38 tumor tissue [9], the “infiltration of CD8+ cells in tumors (IHC)” value is “Some increase of CD8+ cell infiltration”.
